The data set can be described thus: Stability study: heat stress storage, UPLC analysis of degradation. The data set is classed as physicochemical. As to the method: Samples containing either 1 mM deoxyadenosine triphosphate (dATP), or 1 mM deoxyadenosine tetraphosphate (dA4P) or 1 mM dATP+1 mM dA4P were suspended in a buffer containing 40% DMSO/0.75M KOAc were stored for 18 hours at either 65° C. The samples were then run in a UPLC column and analyzed for degradation of the starting products.

With `Nc1ncnc2c1ncn2[C@H]1C[C@H](O)[C@@H](COP(=O)(O)OP(=O)(O)OP(=O)(O)O)O1` [dATP, deoxyadenosine triphosphate], the active substrate remaining (buffer, 18 h, 1 mM) is 51%.

Consider deoxyadenosine tetraphosphate [dA4P], for which, under “1 mM in buffer containing 40% DMSO/0.75M KOAc, stored 18 hours at 65° C., UPLC”, the active substrate remaining result was “approximately 70%”.

The record behind these values is US20180363044A1, “COMPOSITIONS AND METHODS FOR IMPROVING THE THERMAL STABILITY OF NUCLEIC ACID AMPLIFICATION REAGENTS” (Roche Molecular Systems, Inc., priority 2017, published 2018).
